Experimental findings from PMC5428013, “Peptide-Au Clusters Induced Tumor Cells Apoptosis via Targeting Glutathione Peroxidase-1: The Molecular Dynamics Assisted Experimental Studies” (Scientific Reports, 2017) are described below.

What all share (assay type): cell-based, human
Assay [1] deals with A549 cells. Put plainly: Uptake of Au25P1_9 by A549 cells determined by ICP-MS. The note with it: Au dose 0, 100, 200, 400, 800 μM, 48 h. The protocol: The cells were cultured in medium supplemented with 10% fetal bovine serum and 1% penicillin and streptomycin in a culture flask (25 cm^2), reseeded every 2–4 days to maintain subconfluency and kept in humidified atmosphere of 95% air and 5% CO2 at 37 °C. After cells reaching 80% confluence during the exponential growth in culture flask, the cells were harvested and subcultured on 6-well plate (at the density of 1 × 10^5 cells/well) for 24 h. Then the medium was discarded and fresh culture medium with Au25P1_9 at different doses was added to make cells exposed to final Au doses at 0, 100, 200, 400 and 800 μM, respectively. After another 48 h incubation, the cells were treated with trypsin and collected, and then washed thrice with PBS. 5 × 10^5 cells of each sample counted by flow cytometry were predigested by HNO3 and H2O2 at a volume ratio of 3:1 for 12 h and further digested by aqua regia at 160 °C, and then diluted to 10 mL aqueous solution with 1% HCl and 2% HNO3. Finally, the amount of Au25P1_9 taken into cells was measured by ICP-MS with Au calibration curve.

Assay [2] has as its system A549 cells. The assay is described as follows: Intracellular ROS level by CLSM (CM-H2DCFDA). The note with it: Au25P1_9, final Au dose 800 µM, 48 h, 5 µM CM-H2DCFDA. The procedure:
For CLSM observation, cells were prior cultured on glass-bottom dishes. Au25P1_9 was added to culture medium and the final Au dose was 800 µM. After 48 h. the cells were washed three times with PBS and incubated with 5 µM CM-H2DCFDA, at 37 °C under darkness for 30 min. Before CLSM observation, the culture medium was discarded and the cells were washed three times with PBS, supplemented with fresh culture medium. Finally, ROS in cells were highlighted by green fluorescence emission of CM-H2DCFDA, imaged under Nikon Ti-e microscope with excitation at wavelengths of 488 nm. For flow cytometry analysis, cells were prior seeded on 6-well plate (at the density of 1 × 10^5 cells/well) for 24 h. Then the medium was discarded and fresh culture medium containing Au25P1_9 with Au dose at 800 μM was added. For another 48 h incubation, the cells were washed thrice with PBS, and incubated with 5 µM CM-H2DCFDA at 37 °C under darkness for 30 min. After washing with PBS, the cells were collected and suspended in ice cold PBS. Fluorescence intensity of 20,000 events was recorded using an Accuri C6 flow cytometer and the level of intracellular ROS was analyzed by Cflow software.

Another assay concerns caspase-3. Put plainly: Cleaved caspase-3 level, western blotting. The note with it: serial Au doses (0, 100, 200, 400, 800 μM), 48 h. The protocol: (§1) The expression of GPx-1, caspase-3 and PARP from Au25P1_9 treated A549 cells were analyzed by western blotting. A549 cells were prior seeded on 6-well plate (at the density of 1 × 10^5 cells/well) for 24 h. Then the medium was discarded and fresh culture medium with Au25P1_9 at different doses was added to make cells exposed to final Au doses at 0, 100, 200, 400 and 800 μM, respectively. After another 48 h incubation, the cells were harvested and lysed by cell lysis buffer for Western and IP (containing 20 mM Tris-HCl, pH7.5, 150 mM NaCl, 1% Triton X-100, sodium pyrophosphate, β-glycerophosphate, EDTA, Na3VO4 and leupeptin), protease inhibitor cocktail tablet and 1 mM PMSF for 15 min on a shaker at 4 °C. The lysed cells were collected and centrifuged for 15 min at 12,000 g to get total protein of cells. The protein dose of each sample was prior quantified, and then loading buffer was added. After boiling for 5 min, the protein samples with equal amount were separated on 12% SDS polyacrylamide gel electrophoresis and then transferred onto the polyvinylidene difluoride (PVDF) membrane. Membrane was blocked by 5% nonfat dried milk prepared in tris(hydroxymethyl)amin omethane-NaCl-Tween 20 (TBST) at room temperature for 1 h, and then incubated with primary antibodies specific to β-actin, Caspase-3, PARP and GPx-1 at 4 °C overnight, respectively. […]

The subject of another assay is PARP. Put plainly: Cleaved PARP level, western blotting. The note with it: serial Au doses (0, 100, 200, 400, 800 μM), 48 h. The procedure: as §1
(Immunoblotting shows a protein as a band on a membrane.)

The next assay has as its system HCT-8 cells. The assay is described as follows: Cell viability assay (CCK-8), HCT-8. The note with it: HCT-8, same condition as A549. The protocol:
Briefly, cells were prior cultured on 96-well plates (at the density of 5 × 10^3 cells/well) for 24 h to allow cells attachment. The cells were treated with different doses of these free peptides (0, 1, 4, 16, 64, 256, 1024 µM) and peptide-Au clusters (0, 50, 100, 200, 400, 800 µM in Au dose) for 48 h, respectively. The cells were washed three times with PBS and then incubated with fresh growth medium containing 10% (v/v) CCK-8 reagent for 1 h at 37 °C for cell viability assay. The absorbance was measured at 450 nm by using a microplate reader (SpectraMAX M2, Sunnyvale, California). Cell viability of untreated cells was set as 100%, and that of treated cells were expressed as a relative percentage of untreated cells. All data were shown as mean percentages ± standard deviation from three independent experiments.

For “CCYGGPEEEEEVG [Au25P1_9, Au25 cluster coated by nine P1 peptides (…)]”, the “cellular uptake” value in the assay on A549 cells [1] is “dosage dependent manner”. Besides, the “intracellular ROS by CLSM” value in the assay with A549 cells [2] is recorded as “obvious green fluorescence, a sign of increased intracellular ROS”. The “cleaved caspase-3 level” value in the assay on caspase-3 was “Au dose-dependent increase of cleaved caspases-3”. Also, the “cleaved PARP level” value with PARP was “Au dose-dependent increase of cleaved caspases-3 and cleaved PARP levels”. The “change of cell viability” value in the assay with HCT-8 cells is listed as “almost negligible”.
